One test relates to soluble epoxide hydrolase (sEH). The test can be described thus: Fluorescent assay for soluble epoxide hydrolase (CMNPC substrate), percent inhibition at the recited concentration. Type of test: biochemical. The conditions noted are these: Inhibition Conc. 50 nM. An excerpt:
Fluorescent Assay for Mouse and Human Soluble Epoxide Hydrolase Recombinant mouse sEH (MsEH) and human sEH (HsEH) were produced in a baculovirus expression system as previously reported. Grant et al., J. Biol. Chem., 268:17628-17633 (1993); Beetham et al., Arch. Biochem. Biophys., 305:197-201 (1993). The expressed proteins were purified from cell lysate by affinity chromatography. Wixtrom et al., Anal. Biochem., 169:71-80 (1988). Protein concentration was quantified using the Pierce BCA assay using bovine serum albumin as the calibrating standard. The preparations were at least 97% pure as judged by SDS-PAGE and scanning densitometry. They contained no detectable esterase or glutathione transferase activity which can interfere with the assay. The assay was also evaluated with similar results in crude cell lysates or homogenate of tissues. The IC50s for each inhibitor were determined according to the following procedure: […] Jones P. D. et al.; Analytical Biochemistry 2005; 343: pp. 66-75) Bis/Tris HCl 25 mM pH 7.0 containing 0.1 mg/mL of BSA (buffer […] at 0.25 mM in DMSO. Mother solution of enzyme in buffer A (Mouse sEH at 6 μg/mL and Human sEH at 5 μg/mL). Inhibitor dissolved in DMSO at the appropriate concentration. In a black 96 well plate, fill all the wells with 150 μL of buffer A. Add 2 μL of DMSO in well A2 and A3, and then add 2 μL of inhibitor solution in A1 and A4 through A12. Add 150 μL of buffer A in row A, then mix several time and transfer 150 μL to row B. Repeat this operation up to row H. The 150 μL removed from row H is discarded. Add 20 μL of buffer A in column 1 and 2, then add 20 μL of enzyme solution to column 3 to 12. Incubate the plate for 5 minutes in the plate reader at 30° C. During incubation prepare the working solution of substrate by mixing 3.68 mL of buffer A (4×0.920 mL) with 266 μL (2×133 μL) of substrate solution). At t=0, add 30 μL of working substrate solution with multi-channel pipette labeled “Briggs 303” and start the reading ([S]final: 5 μM). Read with ex: 330 nm (20 nm) and em: 465 nm (20 nm) every 30 second for 10 minutes. The velocities are used to analyze and calculate the IC50s. Tables 1-7 above provide the percent inhibition of the enzyme when tested at the concentration recited therein.
With `CC(C)(C)OC(=O)N1CCC(NC(=O)Nc2ccc3c(c2)CCC3)CC1` [Compound 6-5, tert-butyl 4-(3-(2,3-dihydro-1H-inden-5-yl)ureido)-piperidine-1-carboxylate], the “% inh.” value was determined as 92%.

`O=C(NC1CCN(S(=O)(=O)c2ccc(Cl)cc2)CC1)NC12CC3CC(CC(C3)C1)C2` [Compound 7-27]: the “% inh.” value worked out at 95%.

Turning to `Cn1cnc(C(=O)N2CCC(NC(=O)NC34CC5CC(CC(C5)C3)C4)CC2)c1` [Compound 7-39, 1-adamantyl-3-(1-(1-methyl-1H-imidazole-4-carbonyl)piperidin-4-yl)urea], the “% inh.” value is 89%.

Take `CC(C)(C)c1ccc(S(=O)(=O)N2CCC(NC(=O)NC34CC5CC(CC(C5)C3)C4)CC2)cc1` [Compound 7-30, 1-(1-(4-tert-butylphenylsulfonyl)piperidin-4-yl)-3-adamantylurea]: the “% inh.” value came to 97%.

Regarding `NS(=O)(=O)c1ccc(C(=O)N2CCC(NC(=O)Nc3ccc(OC(F)(F)F)cc3)CC2)cc1` [Compound 4-2, 4-(4-(3-(4-(trifluoromethoxy)-phenyl)ureido)-piperidine-1-carbonyl)benzenesulfonamide], the “% inh.” value is given as 98%.

For the molecule `COc1ccc(S(=O)(=O)N2CCC(NC(=O)NC34CC5CC(CC(C5)C3)C4)CC2)cc1` [Compound 7-1, 1-(1-adamantyl)-3-(1-(4-methoxyphenylsulfonyl)-piperidin-4-yl)urea], the “% inh.” value was 99%.

On to `O=C(Nc1ccc(C(F)(F)F)cc1)NC1CCN(C(=O)Nc2ccc(C(F)(F)F)cc2)CC1` [Compound 7-16, N-(4-(trifluoromethyl)phenyl)-4-(3-(4-(trifluoro-methyl)phenyl)ureido)-piperidine-1-carboxamide], for which the “% inh.” value is 98%.

`Cc1nc(C(=O)N2CCC(NC(=O)NC34CC5CC(CC(C5)C3)C4)CC2)c(C)o1` [Compound 7-8, 1-(1-adamantyl)-3-(1-(2,5-dimethyloxazole-4-carbonyl)piperidin-4-yl)urea]: the “% inh.” value was 89%.

Take `CC(C)OC(=O)N1CCC(NC(=O)Nc2ccc(OC(F)(F)F)cc2)CC1` [Compound 7-22, isopropyl 4-(3-(4-(trifluoromethoxy)phenyl)ureido)piperidine-1-carboxylate]: the “% inh.” value was determined as 99%.

Consider `CCOC(=O)N1CCC(NC(=O)Nc2ccc(C(F)(F)F)cc2)CC1` [Compound 7-15, ethyl 4-(3-(4-(trifluoromethyl)phenyl)ureido)piperidine-1-carboxylate], for which the “% inh.” value is given as 93%.

With `CC(C)OC(=O)N1CCC(NC(=O)Nc2ccc(C(F)(F)F)cc2)CC1` [Compound 7-20, isopropyl 4-(3-(4-(trifluoromethyl)phenyl)ureido)piperidine-1-carboxylate], the “% inh.” value worked out at 95%.

Consider `O=C(NC1CCCCC1)NC1CCN(S(=O)(=O)c2cccc(C(F)(F)F)c2)CC1` [Compound 7-44, 1-cyclohexyl-3-(1-(3-(trifluoromethyl)phenylsulfonyl)piperidin-4-yl)urea], for which the “% inh.” value is 81%.

As for `O=C(Nc1ccc(C(F)(F)F)cc1)NC1CCN(c2ccc(C(F)(F)F)cn2)CC1` [Compound 2-1], the “% inh.” value is given as 13%.

Turning to `NS(=O)(=O)c1ccc(C(=O)N2CCC(NC(=O)Nc3ccc(C(F)(F)F)cc3)CC2)cc1` [Compound 4-1, 4-(4-(3-(4-(trifluoromethyl)phenyl)ureido)piperidine-1-carbonyl)benzene-sulfonamide], the “% inh.” value is 90%.

On to `O=C(NC1CCN(S(=O)(=O)c2ccc(C(F)(F)F)cc2)CC1)NC12CC3CC(CC(C3)C1)C2` [Compound 7-36, 1-adamantyl-3-(1-(4-(trifluoromethyl)phenylsulfonyl)piperidin-4-yl)urea], for which the “% inh.” value is listed as 99%.

The test is the same for the next values; noted with them: Inhibition Conc. 200 nM.
For the molecule `CC(C)(C)CC(=O)N1CCC(NC(=O)NC23CC4CC(CC(C4)C2)C3)CC1` [Compound 7-72, 1-adamantyl-3-(1-(3,3-dimethylbutanoyl)piperidin-4-yl)urea], the “% inh.” value worked out at 96%.

Take `CC(C)(C)OC(=O)N1CCC(NC(=O)NC2CCCCCC2)CC1` [Compound 7-48, tert-butyl 4-(3-cycloheptylureido)piperidine-1-carboxylate]: the “% inh.” value is 100%.

As for `O=C(NC1CCN(C(=O)NC23CC4CC(CC(C4)C2)C3)CC1)NC12CC3CC(CC(C3)C1)C2` [Compound 7-56, N-adamantyl-4-(3-adamantylureido)piperidine-1-carboxamide], the “% inh.” value stood at 86%.

As for `O=C(Nc1ccc(OC(F)(F)F)cc1)NC1CCN(C(=O)N2CCOCC2)CC1` [Compound 7-79, 1-(1-(morpholine-4-carbonyl)piperidin-4-yl)-3-(4-(trifluoromethoxy)phenyl)urea], the “% inh.” value was found to be 98%.

For `CC(=O)N1CCC(NC(=O)NC23CC4CC(C2)C(=O)C(C4)C3)CC1` [Compound 3-9, 1-(1-acetylpiperidin-4-yl)-3-(4-oxoadamantyl)urea], the “% inh.” value is 42%.

Consider `CC(C)(C)OC(=O)N1CCC(NC(=O)Nc2ccc(S(C)(=O)=O)cc2)CC1` [Compound 7-49, tert-butyl 4-(3-(4-(methylsulfonyl)phenyl)ureido)piperidine-1-carboxylate], for which the “% inh.” value was 83%.

Regarding `CC(C)(C)OC(=O)N1CCC(NC(=O)NC2CCCCCCC2)CC1` [Compound 7-64, tert-butyl 4-(3-cyclooctylureido)piperidine-1-carboxylate], the “% inh.” value is on record as 97%.

Consider `O=C(NC1CCN(C(=O)CCCO)CC1)NC12CC3CC(CC(C3)C1)C2` [Compound 7-73, 1-adamantyl-3-(1-(4-hydroxybutanoyl)piperidin-4-yl)urea], for which the “% inh.” value worked out at 94%.

Still in this test, the particulars now being: Inhibition Conc. 500 nM.
As to `CC(=O)N1CCC(NC(=O)NCC2CCCCC2)CC1` [Compound 1-2, 1-(1-acetylpiperidin-4-yl)-3-(cyclo-hexylmethyl)urea], the “% inh.” value stood at 92%.

Still in this test, the particulars now being: Inhibition Conc. 2000 nM.
In the case of `CC(=O)N1CCC(NC(=O)Nc2cccnc2)CC1` [Compound 6-12, 1-(1-acetylpiperidin-4-yl)-3-(pyridin-3-yl)urea], the “% inh.” value turned out to be 40%.

For `CC(=O)N1CCC(NC(=O)Nc2ccc(C(=O)O)cc2)CC1` [Compound 7-53, 4-(3-(1-acetylpiperidin-4-yl)ureido)benzoic acid], the “% inh.” value amounted to 17%.

Take `COc1ccc(CNC(=O)NC2CCN(C(C)=O)CC2)cc1OC` [Compound 1-5, 1-(1-acetylpiperidin-4-yl)-3-(3,4-dimethoxy-benzyl)urea]: the “% inh.” value is 66%.

On to `CC(C)(C)OC(=O)N1CCC(NC(=O)Nc2ccc(CN3CCCC3)cc2)CC1` [Compound 7-68, tert-butyl 4-(3-(4-(pyrrolidin-1-ylmethyl)phenyl)ureido)piperidine-1-carboxylate], for which the “% inh.” value came out at 93%.

As to `CC(C)(C)OC(=O)N1CCC(NC(=O)Nc2ccc(C(=O)O)cc2)CC1` [Compound 7-54, 4-(3-(1-(tert-butoxycarbonyl)piperidin-4-yl)ureido)benzoic acid], the “% inh.” value is 55%.

`COC(=O)c1ccc(NC(=O)NC2CCN(C(C)=O)CC2)s1` [Compound 6-16, methyl 5-(3-(1-acetylpiperidin-4-yl)ureido)thiophene-2-carboxylate]: the “% inh.” value is 78%.

Take `CC(C)(C)C(=O)N1CCC(NC(=O)Nc2ccc(S(C)(=O)=O)cc2)CC1` [Compound 7-70, 1-(4-(methylsulfonyl)phenyl)-3-(1-pivaloylpiperidin-4-yl)urea]: the “% inh.” value is reported as 90%.

Turning to `O=C(Nc1ccc(OC(F)(F)F)cc1)NC1CCN(c2ccccc2)CC1` [Compound 2-9, 1-(1-phenylpiperidin-4-yl)-3-(4-(trifluoromethoxy)phenyl)urea], the “% inh.” value is listed as 99%.

On to `CC(=O)N1CCC(NC(=O)NC2CCN(C(=O)C(C)(C)C)CC2)CC1` [Compound 8-6, 1-(1-acetylpiperidin-4-yl)-3-(1-pivaloylpiperidin-4-yl)urea], for which the “% inh.” value is 69%.

As for `CC(=O)N1CCC(NC(=O)Nc2ccc(C#N)cc2)CC1` [Compound 7-80, 1-(1-acetylpiperidin-4-yl)-3-(4-cyanophenyl)urea], the “% inh.” value was found to be 80%.

Still in this test, the particulars now being: Inhibition Conc. 5000 nM.
Consider `CC(=O)N1CCC(NC(=O)Nc2ccc(-c3nnn[nH]3)cc2)CC1` [Compound 6-9, 1-(4-(1H-tetrazol-5-yl)phenyl)-3-(1-acetylpiperidin-4-yl)urea], for which the “% inh.” value is 84%.

Still in this test, the particulars now being: Inhibition Conc. 50000 nM.
For `CC(=O)N1CCC(NC(=O)Nc2ccncc2)CC1` [Compound 6-7, 1-(1-acetyl-piperidin-4-yl)-3-(pyridin-4-yl)urea], the “% inh.” value was 53%.

These data come from patent US20080227780A1, “SOLUBLE EPOXIDE HYDROLASE INHIBITORS” (Arete Therapeutics, Inc., priority 2007, published 2008).
